Data on seven compounds can be found in patent US20140301961A1, “COMPOUNDS WITH ANTI-AGING ACTIVITIES” (priority 2011, published 2014).

The subject of data set [1] is Kallikrein 8. The experiment in a line: Kallikrein 8 ELISA in human normal keratinocytes. In kind it is cell-based. As to conditions: 4 days stimulation (FIG. 14). How it is done:
(§1) Keratinocytes were cultured in commercially available keratinocyte medium M154 (Cascade Biologics/Invitrogen) # M154500 with a final calcium […]. Supplements were added meeting following final concentrations of growth factors; bovine pituitary extract (BPE), 0.2% v/v·bovine insulin, 5 μg/ml·hydrocortisone, 0.18 μg/ml·bovine transferrin, 5 μg/ml·human epidermal growth factor, 0.2 ng/ml.
Keratinocytes used for Kallikrein 8 experiments were cultured as described in example 2.1. Experiments were performed in monolayers with 80% confluence. The cells were stimulated for 4 days prior to kallikrein 8 analysis with the different actives and then culture supernatant were collected and stored in −20° C. until further analysis. Kallikrein 8 production was analysed in cell culture supernatants from stimulated keratinocytes using a ELISA assay specific for Kallikrein 8 (Uscn Life Science Inc, E90690Hu). Results were compared with cell culture supernatants from DMSO vehicle treated cells. The assays utilized a 96-well microplate format and were processed according to the manufacturer's protocol, including generation of a standard curve prepared in background assay diluents. Absorbance of the assay dye was read at a Synergy HT plate reader. Values that fell within the linear range of the calibration assay were accepted. Quantities were determined by comparison to standard curves obtained for KLK8.
(In an ELISA, binding on a coated surface is turned into a signal by an enzyme label.)

Data set [2] concerns pro-collagen type 1. The experiment in a line: Pro-collagen 1 ELISA in dermal fibroblasts. In kind it is cell-based, human. As to conditions: 24 hour stimulation, 3 donors (FIG. 5). As for the experimental part: (§2) MMP-inhibitory activity for compounds of the invention was also assessed on human dermal fibroblasts. Dermal fibroblasts were cultured in Dulbecco's Modified Eagle Medium (DMEM) (Invitrogen) with 10% EBS (ex. Invitrogen) and 1% Pencillin/Streptavidin (ex. Invitrogen). To induce inflammation in the cells, PMA (phorbol myristate acetate) (ex. Sigma) was used at a concentration of 10 nM. […] The cells were stimulated for 24 h and the culture supernatant was collected and stored at −20° C. until further analysis.
Fibroblast cells were cultured as outlined in Example 3.1 and treated with compounds of the invention The secretion of pro-collagen in the cell culture supernatants were analyzed using Pro-Collagen 1 specific ELISA (#8003; ex. Quidel). Results were compared with cell culture supernatants from DMSO vehicle treated cells. The assays utilized a 96-well microplate format and were processed according to the manufacturer's protocol, including generation of a standard curve prepared in background assay diluents. Absorbance of the assay dye was read at a Synergy HT plate reader. Values that fell within the linear range of the calibration assay were accepted. Quantities were determined by comparison to standard curve obtained for pro-collagen 1.

Data set [3] concerns Keratin 1/10. Nature of the data set: Keratin 1/10 production in human normal keratinocytes. Type of data set: cell-based. Conditions: concentration not given. As for the experimental part:
as §1
(§3) Medium was changed every other day. Cells were grown to 80% confluence prior stimulation with compounds. Experiments were performed in 24-well plates. The cells were treated with individual compounds of the invention for 6 days. After 3 days the medium was refreshed. A source of calcium ions was used as a positive control. After 6 days tissue culture medium was stored in −20° C. until analysis.
Cells were cultured as described in Example 5.1. and the methodology described in Example 3.1 was adapted in order analyze keratin 1/10 production.

The subject of data set [4] is VEGF. Nature of the data set: Inflammation induced VEGF synthesis in cultured dermal fibroblasts. Type of data set: cell-based, human. As to conditions: inflammatory inducer PMA (FIG. 10). As for the experimental part: as §2
Fluorokine MultiAnalyte Profiling (xMAP) using the BioPlex (ex. Biorad) dual laser flow-based sorting and detection analyzers manufactured by Luminex corporation (Luminex, Austin, Tex.) was employed to measure levels of MMP in conditioned media samples of stimulated dermal fibroblasts. The technology incorporated polystyrene microspheres dyed internally with differing ratios of two spectrally distinct fluorophores to create a family of different spectrally addressed bead sets. The bead utilized in this study was conjugated with a biotinylated capture antibody specific for a unique MMPs, The assay was performed without antecedent serum depletion. Results were compared with medium from cells treated with vehicle only (DMSO). The assays utilized a 96-well microplate format and were processed according to the manufacturer's protocol, including generation of a standard curve for each target prepared in background assay diluents. Values that fell within the linear range of the calibration assay were accepted. Samples were analyzed using the Bio-Plex suspension array system and Bio-Plex Manager software 4.0 (Bio-Rad Laboratories, Hercules, Calif.). Quantities were determined by comparison to standard curves obtained for the different MMP.
Cell culture and cytokine analysis was carried out on human dermal fibroblasts as described in Example 3.1. The methodology was adapted in order analyze VEGF production.

Data set [5] concerns fibronectin. The experiment in a line: Fibronectin production in human keratinocytes. In kind it is cell-based. Conditions: 6 days stimulation, compared to all-trans retinoic acid and retinol. As for the experimental part: as §1, §3
Experimental method as outlined in Example 3.1 was modified in order to analyze fibronectin levels extracted from keratinocytes stimulated for 6 days with all-trans retinoic acid, retinol, arachidonic acid, β-aescin, and […] (ethyl ester) at a range of concentrations. Experiments were performed in duplicates.
Cells were cultured as described in Example 5.1. and the methodology described in Example 3.1 was adapted in order analyze fibronectin production.

In data set [6] the test system is prostaglandin-endoperoxide synthase 1 (PTGS1). Nature of the data set: Affymetrix gene array on skin explants, PTGS1. As to conditions: topical, 24 hours. Type of data set: cell-based, human. The source says: (§4) Subcutaneous fat from full thickness skin, obtained from surgical waste material from breast reduction procedures, was removed with a scalpel. Three healthy Caucasian female donors were used for this study. The female donors differed from those of the skin-treatment study outlined previously 8 mm punch biopsies were taken from the skin (and these biopsies are now referred to as skin explants). Skin explants were put on Milipore cell culture inserts (12 mm diameter). Inserts containing skin explants were put in 6-well plates (one insert/well) and 1 mL of supplemented keratinocyte medium (ex Cascade Biologics) was added to each well. A tretinoin-containing cream (Aberela® ex. Janssen): 0.05% tretinoin in the cream, was applied topically to each explant (5 μL/cm^2) using a positive displacement pipette. A placebo cream without tretinoin was used as a control. The skin explants were incubated with tretinoin for 24 hours at 37° C. in 5% CO2-humidified air.
(§5) RNA concentration was measured with ND-1000 spectrophotometer (ex. NanoDrop Technologies) and RNA quality was evaluated using the Agilent 2100 bioanalyzer system (ex. Agilent Technologies). 250 nanograms of total RNA from each skin or skin explant sample was used to prepare biotinylated fragmented cRNA according to the GeneChip® 3′IVT Express Kit Manual (PN702646 Rev 1, ex. Affymetrix Inc.). Affymetrix GeneChip® expression arrays (Human Genome U133 Plus 2.0) were hybridized for 16 hours in a 45° C. incubator, rotated at 60 rpm. According to the GeneChip Expression Wash, Stain and Scan Manual (PN 702731 Rev 2, ex. Affymetrix Inc.) the arrays were washed and stained using the Fluidics Station 450 and scanned using the GeneChip® Scanner 3000 7G.
(§6) Analysis of the gene expression data was carried out in the statistical computing language R (http://www.r-project.org) using packages available from the Bioconductor project (www.bioconductor.org). The raw data was normalized using the robust multi-array average (RMA) method. In order to search for differentially expressed genes between the X samples and the Y samples group an empirical Bayes moderated t-test was then applied using the ‘limma’ package.
(§7) Skin explants were obtained as detailed in Example 3.1.

Data set [7] has as its system hydroxysteroid (17-beta) dehydrogenase 2 (HSD17B2). Nature of the data set: Affymetrix gene array on skin explants, HSD17B2. Type of data set: cell-based, human. As to conditions: topical, 24 hours.
Excerpt: as §4, §5, §6, §7

Data set [8] relates to Plasminogen activator (PLAT). Nature of the data set: Plasminogen activator (PLAT) activation.
The subject of data set [9] is heparin-binding EGF-like growth factor (HBEGF). The experiment in a line: Affymetrix gene array on skin explants, HBEGF. As to conditions: topical, 24 hours, cut-off |log 2−ratio|>1. Type of data set: cell-based, human.
Excerpt: as §4, §5
Analysis of the gene expression data was carried out in the statistical computing language R (http://www.r-project.org) using packages available from the Bioconductor project (www.bioconductor.org). The raw data was normalized using the robust multi-array average (RMA) method. […]

For data set [10], the system named is arachidonate 5-lipoxygenase (ALOX5). Nature of the data set: Affymetrix gene array on skin explants, ALOX5. Type of data set: cell-based, human. Conditions: topical, 24 hours.
Excerpt: as §4, §5, §6, §7

Data set [11] concerns steroid 5 alpha-reductase 3 (SRD5A3). Nature of the data set: Affymetrix gene array on skin explants, SRD5A3. In kind it is cell-based, human. Conditions: topical, 24 hours.
Excerpt: as §4, §5, §6, §7

Data set [12] has as its system connective tissue growth factor (CTGF). Nature of the data set: Affymetrix gene array on skin explants, CTGF. As to conditions: topical, 24 hours. In kind it is cell-based, human.
Excerpt: as §4, §5, §6
Skin explants were obtained as detailed in Example 3.1. Compounds naringenin and N-acetyl aspartic acid were topically applied on skin explants for 24 hours and investigated with Affymetrix gene array.

For data set [13], the system named is tachykinin, precursor 1 (TAC1). The experiment in a line: Affymetrix gene array on skin explants, TAC1. Type of data set: cell-based, human. Conditions: topical, 24 hours.
Excerpt: as §4, §5, §6, §7

The conditions of data set [14]: cited from earlier work.
The test system of data set [15] is keratin 6. The experiment in a line: Keratin-6 production in normal human keratinocytes. In kind it is cell-based. As to conditions: normal human keratinocytes (FIG. 11).

As to β-aescin [Beta Aescin], in data set [1], the “synthesis of kallikrein 8” value was “induce production of Kallikrein 8”. The “production of pro-collagen type 1” value in [2] is reported as “convincing trend towards increasing”. The “production of Keratin 1/10” value in [3] is “stimulate production of Keratin 1/10”. Also, the “inflammatory induced VEGF synthesis” value in data set [4] is “decreased VEGF expression, although insignificant”. Also, the “fibronectin production / release” value in [5] is on record as “higher fibronectin production than retinoic acid”.

Compound `CC1=C(/C=C/C(C)=C/C=C/C(C)=C/C(=O)O)C(C)(C)CCC1` [All-trans retinoic acid, all-trans retinoic acid, reference compound] displayed a PTGS1 gene expression in [6] of −1.03 log 2−ratio. The same compound showed an HSD17B2 gene expression in data set [7] of −0.48 log 2−ratio. Also, the “Plasminogen activator (PLAT) activation” value in [8] is reported as “activated”. The HBEGF gene expression in [9] is 1.21 log 2−ratio. The same compound yielded an ALOX5 gene expression in data set [10] of −0.69 log 2−ratio. The “synthesis of kallikrein 8” value in [1] is given as “significant stimulation of kallikrein 8”. In [11], this compound displayed an SRD5A3 gene expression of 0.29 log 2−ratio. Besides, the CTGF gene expression result is recorded as “No” in data set [12] (cut-off |log 2−ratio|>1) and “did not have any effect” in [12] (cut-off |log 2−ratio|>1, listed as all-trans retinoic acid). In addition, the “inflammatory induced VEGF synthesis” value in [4] is reported as “additional increase in VEGF”. This compound also showed a TAC1 gene expression in data set [13] of −4.01 log 2−ratio.

Turning to `O=c1cc(-c2ccc(O)cc2)oc2c([C@@H]3O[C@H](CO)[C@@H](O)[C@H](O)[C@H]3O)c(O)cc(O)c12` [Vitexin], the Log p in data set [14] is on record as 1.5.

Consider `CC1=C(/C=C/C(C)=C/C=C/C(C)=C/CO)C(C)(C)CCC1` [retinol, All-trans retinol, reference compound], for which the “synthesis of kallikrein 8” value in [1] is recorded as “significant stimulation of kallikrein 8”. Also, the “inflammatory induced VEGF synthesis” value in [4] is on record as “small but insignificant decrease in VEGF”.

For the compound `CC/C=C\C/C=C\C/C=C\C/C=C\C/C=C\C/C=C\CCC(=O)OCC` [Docosahexaenoic acid (ethyl ester)], in [1], the “synthesis of kallikrein 8” value is given as “significant increase in the synthesis of kallikrein 8”. In [2], the “production of pro-collagen type 1” value is reported as “convincing trend towards increasing”. Moreover, in [3], the “production of Keratin 1/10” value is given as “stimulate production of Keratin 1/10”. Further, the keratin-6 production result in [15] is “stimulated keratin-6 production”. For the same compound, the “fibronectin production / release” value in data set [5] is recorded as “higher fibronectin production than retinoic acid”.

Take `CCCCC/C=C\C/C=C\C/C=C\C/C=C\CCCC(=O)O` [Arachdonic acid, Arachidonic acid]: in data set [1], the “synthesis of kallikrein 8” value is listed as “significant increase in the synthesis of kallikrein 8”. In addition, the Log p in data set [14] is recorded as 6.98. Besides, the “production of pro-collagen type 1” value in data set [2] is recorded as “promote pro-collagen 1 expression”. Besides, the “production of Keratin 1/10” value in data set [3] is on record as “stimulate production of Keratin 1/10”. Moreover, the “fibronectin production / release” value in data set [5] was “higher fibronectin production than retinoic acid”.

In the case of `O=c1c(O)c(-c2ccc(O)c(O)c2)oc2cc(O)cc(O)c12` [Quercetin], the “synthesis of kallikrein 8” value in data set [1] is recorded as “induce production of Kallikrein 8”. In data set [2], the “production of pro-collagen type 1” value is “promote pro-collagen 1 expression”. The “production of Keratin 1/10” value in data set [3] was “stimulate production of Keratin 1/10”.
